Test results published in ChEMBL document CHEMBL1137794, “Didemnins and tunichlorin: novel natural products from the marine tunicate Trididemnum solidum” (J Nat Prod, 1988).
In brackets after ≈: the same amount, converted by molar mass. Activity calls are given as the source filed them. No cut-off for these calls is given here. *1 amine or outer side, *2 acyl side, *3 side chain or, on linkers, in order; H or OH if unused. Where a SMILES comes first, the peptide text is derived from it. Bridges are numbered along the chain shown (N, C = ends). [ ]: non-standard residue; d: D form. X1 = CC[C@H](C)[C@@H](N[*:1])[C@@H](O)CC(=O)O[C@H](C(=O)[C@H](C)C(=O)[*:2])C(C)C; NMeY = CN[C@@H](Cc1ccc(O)cc1)C(=O)O; dNMeL = CN[C@H](CC(C)C)C(=O)O; Lac = C[C@H](O)C(=O)O

How the values were obtained:
Yellow fever virus [1] = experiment: Antiviral activity against Yellow fever virus infected in rhesus monkey MK2 cells assessed as plaque reduction at 250 ug/mL; assay type: functional, organism-based
[2] = system: Sandfly fever Sicilian virus; experiment: Antiviral activity against Sandfly fever virus assessed as plaque reduction at 250 ug/mL; assay type: functional, organism-based
[3] = system: Venezuelan equine encephalitis virus; experiment: Antiviral activity against Venezuelan equine encephalomyelitis virus infected in african green monkey Vero cells assessed as plaque reduction at 250 ug/mL; assay type: functional, organism-based
Rift Valley fever virus [4] = experiment: Antiviral activity against Rift Valley fever virus infected in african green monkey Vero cells assessed as plaque reduction at 250 ug/mL; assay type: functional, organism-based
T-cell [5] = experiment: Immunosuppressive activity in rat T cell assessed as inhibition of mitogenesis
T-cell [6] = experiment: Immunosuppressive activity in baboon T cell assessed as inhibition of mitogenesis; settings: Papio hamadryas
Lymphocyte [7] = experiment: Immunosuppressive activity in baboon lymphocytes by mixed lymphocyte reaction assay; settings: Papio hamadryas
Lymphocyte [8] = experiment: Immunosuppressive activity in human lymphocytes by mixed lymphocyte reaction assay; assay type: functional, cell-based
T-cell [9] = experiment: Immunosuppressive activity in human T cell assessed as inhibition of mitogenesis; assay type: functional, cell-based
Lymphocyte [10] = experiment: Immunosuppressive activity in human lymphocytes assessed as inhibition of protein synthesis
B cell = experiment: Immunosuppressive activity in human B cell assessed as inhibition of mitogenesis
P388 = experiment: Antitumor activity against mouse P388 cells xenografted mouse assessed as extend the life time at 0.03 to 1 mg/kg, ip; assay type: functional; settings: dose mg/kg 0.03-1; route intraperitoneal
L1210 = experiment: Cytotoxicity against mouse L1210 cells; assay type: functional; settings: read-out: ID50 (the source's name)
Mus musculus [11] = experiment: Toxicity in mouse P388 cells xenografted mouse assessed as change in body weight at 0.06 mg/kg, ip administered on day 1 to day 9; assay type: organism-based; set-up: dose 0.06 mg/kg, route intraperitoneal; settings: in vivo
Rattus norvegicus = species: Rattus norvegicus; experiment: Toxicity in rat; assay type: organism-based; settings: in vivo
Mus musculus [12] = experiment: Toxicity in mouse P388 cells xenografted mouse at 0.5 mg/kg, ip administered on day 1 to day 9; assay type: organism-based; set-up: dose 0.5 mg/kg, route intraperitoneal; settings: in vivo
Mus musculus [13] = experiment: Toxicity in mouse P388 cells xenografted mouse assessed as change in body weight at 0.03 mg/kg, ip administered on day 1, 5 and day 9; assay type: organism-based; set-up: dose 0.03 mg/kg, route intraperitoneal
Mus musculus [14] = experiment: Toxicity in mouse B16 cells xenografted mouse assessed as change in body weight at 0.03 mg/kg, ip administered on day 1 to day 9; assay type: organism-based; set-up: dose 0.03 mg/kg, route intraperitoneal; settings: in vivo
Mus musculus [15] = experiment: Toxicity in mouse P388 cells xenografted mouse assessed as change in body weight at 0.25 mg/kg, ip administered on day 1 to day 9; assay type: organism-based; set-up: dose 0.25 mg/kg, route intraperitoneal; settings: in vivo
Mus musculus [16] = experiment: Toxicity in mouse B16 cells xenografted mouse assessed as change in body weight at 0.06 mg/kg, ip administered on day 1, 5 and day 9; assay type: organism-based; set-up: dose 0.06 mg/kg, route intraperitoneal; settings: in vivo
Mus musculus [17] = experiment: Toxicity in mouse B16 cells xenografted mouse assessed as change in body weight at 0.5 mg/kg, ip administered on day 1, 5 and day 9; assay type: organism-based; set-up: dose 0.5 mg/kg, route intraperitoneal; settings: in vivo
Mus musculus [18] = experiment: Toxicity in mouse B16 cells xenografted mouse assessed as change in body weight at 0.25 mg/kg, ip administered on day 1 to day 9; assay type: organism-based; set-up: dose 0.25 mg/kg, route intraperitoneal; settings: in vivo
Mus musculus [19] = experiment: Toxicity in mouse P388 cells xenografted mouse assessed as change in body weight at 0.5 mg/kg, ip administered on day 1 to day 9; assay type: organism-based; set-up: dose 0.5 mg/kg, route intraperitoneal; settings: in vivo
Yellow fever virus [20] = experiment: Antiviral activity against Yellow fever virus infected in rhesus monkey MK2 cells assessed as plaque reduction at 0.05 ug/mL; assay type: functional, organism-based
Mus musculus [21] = species: Mus musculus; experiment: Toxicity in mouse; assay type: organism-based; settings: in vivo
Mus musculus [22] = experiment: Toxicity in mouse P388 cells xenografted mouse assessed as change in body weight at 0.5 mg/kg, ip administered on day 1, 5 and day 9; assay type: organism-based; set-up: dose 0.5 mg/kg, route intraperitoneal; settings: in vivo
Mus musculus [23] = experiment: Toxicity in mouse B16 cells xenografted mouse assessed as change in body weight at 0.25 mg/kg, ip administered on day 1, 5 and day 9; assay type: organism-based; set-up: dose 0.25 mg/kg, route intraperitoneal; settings: in vivo
Mus musculus [24] = experiment: Toxicity in mouse P388 cells xenografted mouse assessed as change in body weight at 1 mg/kg, ip administered on day 1 to day 9; assay type: organism-based; set-up: dose 1 mg/kg, route intraperitoneal; settings: in vivo
Mus musculus [25] = experiment: Toxicity in mouse B16 cells xenografted mouse assessed as change in body weight at 0.5 mg/kg, ip administered on day 1 to day 9; assay type: organism-based; set-up: dose 0.5 mg/kg, route intraperitoneal; settings: in vivo
Mus musculus [26] = species: Mus musculus; experiment: Immunosuppressive activity in spleen cells transformed mouse assessed as inhibition of splenomegaly by graft-versus-host reaction assay; assay type: functional, organism-based
Mus musculus [27] = experiment: Toxicity in mouse P388 cells xenografted mouse assessed as change in body weight at 0.25 mg/kg, ip administered on day 1, 5 and day 9; assay type: organism-based; set-up: dose 0.25 mg/kg, route intraperitoneal; settings: in vivo
Mus musculus [28] = experiment: Toxicity in mouse P388 cells xenografted mouse assessed as change in body weight at 0.06 mg/kg, ip administered on day 1, 5 and day 9; assay type: organism-based; set-up: dose 0.06 mg/kg, route intraperitoneal; settings: in vivo
Mus musculus [29] = experiment: Toxicity in mouse P388 cells xenografted mouse assessed as change in body weight at 1 mg/kg, ip administered on day 1, 5 and day 9; assay type: organism-based; set-up: dose 1 mg/kg, route intraperitoneal; settings: in vivo
Mus musculus [30] = experiment: Toxicity in mouse B16 cells xenografted mouse assessed as change in body weight at 0.06 mg/kg, ip administered on day 1 to day 9; assay type: organism-based; set-up: dose 0.06 mg/kg, route intraperitoneal; settings: in vivo
Mus musculus [31] = experiment: Toxicity in mouse P388 cells xenografted mouse at 0.06 mg/kg, ip administered on day 1 to day 9; assay type: organism-based; set-up: dose 0.06 mg/kg, route intraperitoneal; settings: in vivo
Mus musculus [32] = experiment: Toxicity in mouse B16 cells xenografted mouse assessed as change in body weight at 1 mg/kg, ip administered on day 1, 5 and day 9; assay type: organism-based; set-up: dose 1 mg/kg, route intraperitoneal; settings: in vivo
[33] = system: Venezuelan equine encephalitis virus; experiment: Antiviral activity against Venezuelan equine encephalomyelitis virus infected in african green monkey Vero cells assessed as plaque reduction at 0.05 ug/mL; assay type: functional, organism-based
Canis familiaris = species: Canis familiaris; experiment: Toxicity in dog; assay type: organism-based, Canis lupus familiaris; settings: in vivo
Mus musculus [34] = experiment: Toxicity in mouse B16 cells xenografted mouse at 0.5 mg/kg, ip administered on day 1 to day 9; assay type: organism-based; set-up: dose 0.5 mg/kg, route intraperitoneal; settings: in vivo
Rift Valley fever virus [35] = experiment: Antiviral activity against Rift Valley fever virus infected in african green monkey Vero cells assessed as plaque reduction at 0.05 ug/mL; assay type: functional, organism-based
[36] = system: Sandfly fever Sicilian virus; experiment: Antiviral activity against Sandfly fever virus assessed as plaque reduction at 0.05 ug/mL; assay type: functional, organism-based

NC(=O)c1ncn([C@@H]2O[C@H](CO)[C@@H](O)[C@H]2O)n1
Activity (Yellow fever virus [1]): Active
Activity [2]: Active
Activity [3]: Active
Activity (Rift Valley fever virus [4]): Active

Cn1cnc([N+](=O)[O-])c1Sc1ncnc2[nH]cnc12 [AZATHIOPRINE]
IC50 (T-cell [5]): 2 µg/mL (≈ 7.21 µM)
IC50 (T-cell [6]): 0.4 µg/mL (≈ 1.44 µM)
IC50 (Lymphocyte [7]): 2.9 µg/mL (≈ 10.5 µM)
IC50 (Lymphocyte [8]): 3 µg/mL (≈ 10.8 µM)
IC50 (T-cell [9]): 9 µg/mL (≈ 32.5 µM)
IC50 (Lymphocyte [10]): 85 µg/mL (≈ 307 µM)
IC50 (B cell): 1 µg/mL (≈ 3.61 µM)

CC[C@H](C)[C@H]1NC(=O)[C@@H](NC(=O)[C@@H](CC(C)C)NC)[C@@H](C)OC(=O)[C@H](Cc2ccc(OC)cc2)N(C)C(=O)[C@@H]2CCCN2C(=O)[C@H](CC(C)C)NC(=O)[C@@H](C)C(=O)[C@H](C(C)C)OC(=O)C[C@@H]1O [DIDEMNIN A] (H-[dNMeL]T[X1]LP[NMeY](Me); ester 2-C)
Activity (P388): 100%
IC50 (L1210): 0.002 µg/mL (≈ 0.00212 µM)

CC[C@H](C)[C@H]1NC(=O)[C@@H](NC(=O)[C@@H](CC(C)C)N(C)C(=O)[C@@H]2CCCN2C(=O)C(C)O)[C@@H](C)OC(=O)[C@H](Cc2ccc(OC)cc2)N(C)C(=O)[C@@H]2CCCN2C(=O)[C@H](CC(C)C)NC(=O)[C@@H](C)C(=O)[C@H](C(C)C)OC(=O)C[C@@H]1O (some centres not stated) [DIDEMNIN B]
Activity (Mus musculus [11]): 0.1 g
Activity (Rattus norvegicus): Toxic
Activity (Mus musculus [12]): Toxic
body weight change (Mus musculus [13]): 1600 mg
Activity (Mus musculus [14]): 0.8 g
Activity (Mus musculus [15]): -2.2 g
Activity (Mus musculus [16]): 1.2 g
Activity (Mus musculus [17]): -1.3 g
Activity (Mus musculus [18]): -3.3 g
Activity (Mus musculus [19]): -3.4 g
Activity (Yellow fever virus [20]): Active
Activity (Mus musculus [21]): Toxic
Activity (Mus musculus [22]): -1.7 g
Activity (Mus musculus [23]): 0.3 g
Activity (Mus musculus [24]): Toxic
Activity (Mus musculus [25]): -4.5 g
inhibition (Mus musculus [26]): Dose-dependent effect
Activity (Mus musculus [27]): -0.5 g
Activity (Mus musculus [28]): 1.2 g
Activity (Mus musculus [29]): -3.8 g
Activity (Mus musculus [30]): -0.4 g
Activity (Mus musculus [31]): Toxic
Activity (Mus musculus [32]): -3.2 g
Activity [33]: Active
Activity (Canis familiaris): Toxic
Activity (Mus musculus [34]): Toxic
Activity (Rift Valley fever virus [35]): Active
Activity [36]: Active

CC[C@H](C)[C@H]1NC(=O)[C@@H](NC(=O)[C@@H](CC(C)C)N(C)C(=O)[C@H](C)O)[C@@H](C)OC(=O)[C@H](Cc2ccc(OC)cc2)N(C)C(=O)[C@@H]2CCCN2C(=O)[C@H](CC(C)C)NC(=O)[C@@H](C)C(=O)[C@H](C(C)C)OC(=O)C[C@@H]1O [DIDEMNIN C] (H-[Lac][dNMeL]T[X1]LP[NMeY](Me); ester 3-C)
IC50 (L1210): 0.002 µg/mL (≈ 0.00197 µM)
